Experimental data: US8153809B2, “Dihydropyridone ureas as P2X7 modulators” (Roche Palo Alto LLC, priority 2008, dated 2012)

Biological target: T1, P2X7 (UniProt Q99572)
T1 sequence (Q99572 1-595): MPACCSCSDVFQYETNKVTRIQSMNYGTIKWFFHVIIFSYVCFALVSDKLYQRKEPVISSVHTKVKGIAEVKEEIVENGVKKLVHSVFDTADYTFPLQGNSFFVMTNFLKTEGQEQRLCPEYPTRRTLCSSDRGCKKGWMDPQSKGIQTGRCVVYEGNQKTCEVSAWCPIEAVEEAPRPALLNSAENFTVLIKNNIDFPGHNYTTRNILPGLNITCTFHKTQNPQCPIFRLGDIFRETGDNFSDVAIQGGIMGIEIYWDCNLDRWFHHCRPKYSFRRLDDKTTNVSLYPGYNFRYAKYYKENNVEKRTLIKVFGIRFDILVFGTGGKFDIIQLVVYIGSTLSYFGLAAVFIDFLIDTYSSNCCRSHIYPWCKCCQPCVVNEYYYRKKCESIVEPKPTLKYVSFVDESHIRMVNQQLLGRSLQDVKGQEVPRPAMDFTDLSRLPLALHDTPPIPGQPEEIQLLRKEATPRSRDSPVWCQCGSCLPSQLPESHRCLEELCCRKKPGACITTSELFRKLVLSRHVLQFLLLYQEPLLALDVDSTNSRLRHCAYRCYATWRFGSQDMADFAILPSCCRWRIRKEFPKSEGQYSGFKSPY
Assay: pIC50 values for P2X7 (Table 1)
Type: cell-based
Method in brief: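 Fluo-3-loaded 1321N1 cells expressing human P2X7 or HEK293 cells expressing rat P2X7, preincubated 20 min at room temperature with antagonist in HBSS/Hepes/probenecid buffer with 2 mM CaCl2. BzATP agonist at 100 μM final (human) or 5 μM final (rat); fluorescence read 5 min, peak normalized to 5 μM ionomycin response.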

| pIC50 | Structure (SMILES) |
| --- | --- |
| 6.13 | COC(=O)c1cccc(NC(=O)N2C=CC(=O)C[C@@H]2c2ccc(F)cc2)c1C [Compound 94, 3-{[(R)-2-(4-Fluoro-phenyl)-4-oxo-3,4-dihydro-2H-pyridine-1-carbonyl]-amino}-2-methyl-benzoic acid methyl ester] |
| 7.9775 | Cc1ccc(C)c(NC(=O)N2C=CC(=O)C[C@H]2c2ccc(F)cc2)c1 [Compound 95, (S)-2-(4-Fluoro-phenyl)-4-oxo-3,4-dihydro-2H-pyridine-1-carboxylic acid (2,5-dimethyl-phenyl)-amide] |
| 7.875 | COc1ccc(Br)c(NC(=O)N2C=CC(=O)C[C@H]2c2ccc(F)cc2)c1 [Compound 96, (S)-2-(4-Fluoro-phenyl)-4-oxo-3,4-dihydro-2H-pyridine-1-carboxylic acid (2-bromo-5-methoxy-phenyl)-amide] |
| 7.74 | Cc1cccc(NC(=O)N2C=CC(=O)C[C@H]2c2ccc(F)cc2)c1C [Compound 97, (S)-2-(4-Fluoro-phenyl)-4-oxo-3,4-dihydro-2H-pyridine-1-carboxylic acid (2,3-dimethyl-phenyl)-amide] |
| 7.475 | O=C1C=CN(C(=O)Nc2cc(CO)c(Cl)cc2Br)[C@H](c2ccc(F)cc2)C1 [Compound 98, (S)-2-(4-Fluoro-phenyl)-4-oxo-3,4-dihydro-2H-pyridine-1-carboxylic acid (2-bromo-4-chloro-5-hydroxymethyl-phenyl)-amide] |
| 7.98 | Cc1cc(C)c(Br)c(NC(=O)N2C=CC(=O)C[C@H]2c2ccc(F)cc2)c1 [Compound 99, (S)-2-(4-Fluoro-phenyl)-4-oxo-3,4-dihydro-2H-pyridine-1-carboxylic acid (2-bromo-3,5-dimethyl-phenyl)-amide] |
| 7.05 | COc1ccc(NC(=O)N2C=CC(=O)C[C@H]2c2ccc(F)cc2)c(C)c1 [Compound 100, (S)-2-(4-Fluoro-phenyl)-4-oxo-3,4-dihydro-2H-pyridine-1-carboxylic acid (4-methoxy-2-methyl-phenyl)-amide] |
| 7.57 | Cn1ccc2ccc(NC(=O)N3C=CC(=O)C[C@H]3c3ccc(F)cc3)cc21 [Compound 101, (S)-2-(4-Fluoro-phenyl)-4-oxo-3,4-dihydro-2H-pyridine-1-carboxylic acid (1-methyl-1H-indol-6-yl)-amide] |
| 6.56 | Cc1cc2cccnc2cc1NC(=O)N1C=CC(=O)C[C@H]1c1ccc(F)cc1 [Compound 102, (S)-2-(4-Fluoro-phenyl)-4-oxo-3,4-dihydro-2H-pyridine-1-carboxylic acid (6-methyl-quinolin-7-yl)-amide] |
| 7.415 | Cc1ccc(NC(=O)N2C=CC(=O)C[C@H]2c2ccc(F)cc2)c(C)c1 [Compound 103, (S)-2-(4-Fluoro-phenyl)-4-oxo-3,4-dihydro-2H-pyridine-1-carboxylic acid (2,4-dimethyl-phenyl)-amide] |
| 7.655 | Cc1cc(C)cc(NC(=O)N2C=CC(=O)C[C@H]2c2ccc(F)cc2)c1 [Compound 104, (S)-2-(4-Fluoro-phenyl)-4-oxo-3,4-dihydro-2H-pyridine-1-carboxylic acid (3,5-dimethyl-phenyl)-amide] |
| 5.91 | COc1ccccc1NC(=O)N1C=CC(=O)CC1c1ccc(F)cc1 (stereo not shown) [Compound 105, 2-(4-Fluoro-phenyl)-4-oxo-3,4-dihydro-2H-pyridine-1-carboxylic acid (2-methoxy-phenyl)-amide] |
| 7.785 | O=C1C=CN(C(=O)Nc2ccc3ncccc3c2Br)[C@H](c2ccc(F)cc2)C1 [Compound 106, (S)-2-(4-Fluoro-phenyl)-4-oxo-3,4-dihydro-2H-pyridine-1-carboxylic acid (5-bromo-quinolin-6-yl)-amide] |
| 7.095 | Cc1cc2nccnc2cc1NC(=O)N1C=CC(=O)C[C@H]1c1ccc(F)cc1 [Compound 107, (S)-2-(4-Fluoro-phenyl)-4-oxo-3,4-dihydro-2H-pyridine-1-carboxylic acid (7-methyl-quinoxalin-6-yl)-amide] |
| 6.043 | Cc1cc(NC(=O)N2C=CC(=O)CC2c2ccc(F)cc2)n(C)n1 (stereo not shown) [Compound 108, 2-(4-Fluoro-phenyl)-4-oxo-3,4-dihydro-2H-pyridine-1-carboxylic acid (2,5-dimethyl-2H-pyrazol-3-yl)-amide] |
| 8.433 | COc1cccc(NC(=O)N2C=CC(=O)CC2c2ccc(F)cc2)c1C (stereo not shown) [Compound 109, 2-(4-Fluoro-phenyl)-4-oxo-3,4-dihydro-2H-pyridine-1-carboxylic acid (3-methoxy-2-methyl-phenyl)-amide] |

| pIC50 | Structure (SMILES) |
| --- | --- |
| 6.89 | COc1cccc(NC(=O)N2C=CC(=O)CC2c2ccc(F)cc2)c1OC (stereo not shown) [Compound 110, 2-(4-Fluoro-phenyl)-4-oxo-3,4-dihydro-2H-pyridine-1-carboxylic acid (2,3-dimethoxy-phenyl)-amide] |
| 8.12 | Cc1cc(F)c(OCCO)cc1NC(=O)N1C=CC(=O)C[C@H]1c1ccc(F)cc1 [Compound 111, (S)-2-(4-Fluoro-phenyl)-4-oxo-3,4-dihydro-2H-pyridine-1-carboxylic acid [4-fluoro-5-(2-hydroxy-ethoxy)-2-methyl-phenyl]-amide] |
| 5.93 | O=C1C=CN(C(=O)Nc2cc3[nH]c(=O)[nH]c3cc2Br)C(c2ccc(F)cc2)C1 (stereo not shown) [Compound 112, 2-(4-Fluoro-phenyl)-4-oxo-3,4-dihydro-2H-pyridine-1-carboxylic acid (6-bromo-2-oxo-2,3-dihydro-1H-benzoimidazol-5-yl)-amide] |
| 5.505 | Cc1nc2cc(NC(=O)N3C=CC(=O)CC3c3ccc(F)cc3)ccc2s1 (stereo not shown) [Compound 113, 2-(4-Fluoro-phenyl)-4-oxo-3,4-dihydro-2H-pyridine-1-carboxylic acid (2-methyl-benzothiazol-5-yl)-amide] |
| 7.74 | Cc1cc(Cl)c(OCCCO)cc1NC(=O)N1C=CC(=O)C[C@H]1c1ccc(F)cc1 [Compound 114, (S)-2-(4-Fluoro-phenyl)-4-oxo-3,4-dihydro-2H-pyridine-1-carboxylic acid [4-chloro-5-(3-hydroxy-propoxy)-2-methyl-phenyl]-amide] |
| 5.915 | COc1cc(NC(=O)N2C=CC(=O)CC2c2ccc(F)cc2)c(N(C)C)cc1OC (stereo not shown) [Compound 115, 2-(4-Fluoro-phenyl)-4-oxo-3,4-dihydro-2H-pyridine-1-carboxylic acid (2-dimethylamino-4,5-dimethoxy-phenyl)-amide] |
| 7.405 | Cn1ccc2cc(NC(=O)N3C=CC(=O)C[C@H]3c3ccc(F)cc3)ccc21 [Compound 116, (S)-2-(4-Fluoro-phenyl)-4-oxo-3,4-dihydro-2H-pyridine-1-carboxylic acid (1-methyl-1H-indol-5-yl)-amide] |
| 6.31 | O=C1C=CN(C(=O)Nc2ccc3ncsc3c2)C(c2ccc(F)cc2)C1 (stereo not shown) [Compound 117, 2-(4-Fluoro-phenyl)-4-oxo-3,4-dihydro-2H-pyridine-1-carboxylic acid benzothiazol-6-ylamide] |
| 7.735 | Cc1cc(Cl)c(CO)cc1NC(=O)N1C=CC(=O)C[C@H]1c1ccc(F)cc1 [Compound 118, (S)-2-(4-Fluoro-phenyl)-4-oxo-3,4-dihydro-2H-pyridine-1-carboxylic acid (4-chloro-5-hydroxymethyl-2-methyl-phenyl)-amide] |
| 6.175 | O=C1C=CN(C(=O)Nc2ccc(OC(F)(F)F)cc2Br)[C@H](c2ccc(F)cc2)C1 [Compound 119] |
| 6.95 | CN(C)C(=O)COc1cc(NC(=O)N2C=CC(=O)C[C@H]2c2ccc(F)cc2)c(Br)cc1Cl [Compound 120, (S)-2-(4-Fluoro-phenyl)-4-oxo-3,4-dihydro-2H-pyridine-1-carboxylic acid (2-bromo-4-chloro-5-dimethylcarbamoylmethoxy-phenyl)-amide] |
| 6.43 | COCCN(C)Cc1cc(NC(=O)N2C=CC(=O)C[C@H]2c2ccc(F)cc2)c(C)cc1Cl [Compound 121, (S)-2-(4-Fluoro-phenyl)-4-oxo-3,4-dihydro-2H-pyridine-1-carboxylic acid (4-chloro-5-{[(2-methoxy-ethyl)-methyl-amino]-methyl}-2-methyl-phenyl)-amide] |
| 5.995 | Cc1cc(Cl)c(CNC(=O)OC(C)(C)C)cc1NC(=O)N1C=CC(=O)C[C@H]1c1ccc(F)cc1 [Compound 122, (2-Chloro-5-{[(S)-2-(4-fluoro-phenyl)-4-oxo-3,4-dihydro-2H-pyridine-1-carbonyl]-amino}-4-methyl-benzyl)-carbamic acid tert-butyl ester] |
| 6.98 | CC(=O)NCc1cc(NC(=O)N2C=CC(=O)C[C@H]2c2ccc(F)cc2)c(C)cc1Cl [Compound 124, (S)-2-(4-Fluoro-phenyl)-4-oxo-3,4-dihydro-2H-pyridine-1-carboxylic acid [5-(acetylamino-methyl)-4-chloro-2-methyl-phenyl]-amide] |
| 7.16 | Cc1c(NC(=O)N2C=CC(=O)C[C@H]2c2ccc(F)cc2)ccc2ncccc12 [Compound 125, (S)-2-(4-Fluoro-phenyl)-4-oxo-3,4-dihydro-2H-pyridine-1-carboxylic acid (5-methyl-quinolin-6-yl)-amide] |
